Measured values from PMC8657848, “Developmental Toxicity and Biotransformation of Two Anti-Epileptics in Zebrafish Embryos and Early Larvae” (International Journal of Molecular Sciences, 2021).

What was measured:
[1] = Microsomal incubation with CBZ and PHE, rat liver microsomes; type: in vitro ADME; settings: rat adult liver microsomes; data not shown
Description: Moreover, positive and negative controls were included: pooled human liver microsomes (Gibco™, HMMCPL–PL050B, Thermo Fisher Scientific) and Insect Cell Control Supersomes™ (lot number: PL050 C-B, 456201, Corning Incorporated, Corning, NY, USA), respectively. Based on Oziolor et al., microsomal reactions were initiated after adding the substrate solution at a concentration of 100 µM (see Supplementary Table S1) in a mixture of 100 mM K3PO4 buffer (Corning® Gentest™, NY, USA) of pH 7.4, 5% and 1% of NADPH regenerating system reagents A and B, respectively (Corning, Woburn, MA, USA) and 200 µg/mL of microsomal protein, for a total volume of 500 µL. The reactions were performed at 28.5 ± 0.3 °C until the time point of interest. […]
For the quantification of the metabolites E-CBZ and HPPH, the samples processed were the microsomal incubation reactions (see Section 4.3.2), the zebrafish culture and stock medium (4.2.1) and the zebrafish embryos/larvae extracts (see Section 4.2.3). […] To quantify the concentrations of E-CBZ and HPPH in these samples, standard curves (in duplicate) of 10 concentrations for E-CBZ (0.5–400 ng/mL; see Supplementary Table S1) and HPPH (2–1600 ng/mL; see Supplementary Table S1) were prepared, as were quality controls. […]

zebrafish embryos/larvae [2] = experiment: Quantification of parent compounds and metabolites in whole zebrafish embryos/larvae homogenate extracts; settings: for Uptake by embryos and larvae (quantified in homogenate extracts): CBZ, PHE 31.25, 85, 250 µM, E-CBZ, HPPH 250 µM
Description: In three biological replicates (n = 3; 20 embryos/replicate) and at the two desired developmental stages (24 and 120 hpf), embryos/larvae of each test and control group were pooled and then rinsed three times with cold EMS (4 °C) on a mesh (Cell strainer […] Nylon, Steril Falcon®, Durham, NC, USA). Embryos collected at 24 hpf were not dechorionated, as the focus of this study was on the potential formation of the mammalian active metabolites. Moreover, it was argued that the chorion was more permeable than previously believed and that dechorionation could increase background malformations during gross morphology investigation. Embryos/larvae were then transferred and kept for five min in cryotubes (Cryo.S™, Greiner Bio-One, Frickenhausen, Germany) filled with 500 µL of cold embryo medium (4 °C), before being snap-frozen in liquid nitrogen and kept, for later use, at −80 °C (Figure 9).
The extraction preparation was based on Brox et al. for two developmental stages, 24 and 120 hpf, and performed in triplicate for each test group (n = 3, 20 embryos/replicate) (Figure 9). On the day of the extraction procedure, frozen samples (see Section 4.2.1) were thawed on ice and EMS was removed. A volume of 500 µL of acetonitrile (ACN) (purity ≥99.9%, Merck, Darmstadt, Germany) containing the internal standard lamotrigine, LAMO, (≥98% purity, CAS number: 84057-84-1, Sigma-Aldrich, Merck, Darmstadt, Germany) was then added to each tube to reach a final concentration of 0.39 µM, after dilution in HPLC-grade water. Samples were vortexed (VM3, CAT, Germany) for 5 min at a 2000 rotation/min speed, before being placed on ice and ultrasonicated with an Ultrasonic Processor VCX 130 (Sonics, Newtown, CT, USA) fifteen times for 30 s at an 80% amplitude with pause intervals of 30 s. Supernatants of the samples were then centrifuged (Centrifuge 5424 R, Eppendorf, Hamburg, Germany) twice at 4 °C for 15 min at 15,000× g, snap-frozen and kept for later use at −80 °C, whereas the pellets were discarded.
First, both sample types were processed to reach a final percentage of 30% ACN and a concentration of 0.39 µM of the IS, LAMO. […] Calibration curves and quality controls were prepared in their corresponding reaction mixtures to minimize matrix or extraction process effects. The analytical investigations were performed on an Acquity Ultra Performance Liquid Chromatography (UPLC) with sample manager, binary solvent manager, diode array detector and a triple-quadrupole detector (ACQUITY UPLC-triple quadrupole detector, Waters, Milford, CT, USA) equipped with the Masslynx software (version 4.1). […] Separation was accomplished in 6 min, using a flow rate of 0.5 mL/min. The solvent gradient program was set as follows: 85% A/15% B (0–0.5 min); 85–0% A/15–100% B (0.5–3.3 min); 0% A/100% B (3.3–4.4 min); 0–85% A/100–15% B (4.4–4.5 min); 85% A/15% B (4.5–6 min). The column was set at 40 °C and the injection volume was 10 μL. For the mass spectrometric conditions, the following parameters were used in positive ionization mode: capillarity voltage 3.5 kV, extractor voltage 3 V, cone voltage 35 V, Rf lens 0.1 V. The source temperature was set at 120 °C and the desolation temperature at 450 °C. The desolvation gas flow was fixed at 1000 L/h and cone gas flow at 50 L/h. […] The limit of quantification, linearity, matrix effects and specificity of the method developed for each compound were validated based on the European Medicines Agency (EMA) guidelines for bioanalytical method validation and the study from Kislyuk et al..
For the quantification of the metabolites E-CBZ and HPPH, the samples processed were the microsomal incubation reactions (see Section 4.3.2), the zebrafish culture and stock medium (4.2.1) and the zebrafish embryos/larvae extracts (see Section 4.2.3). Samples from the different experiments were also prepared, as for the parent compounds, to reach a final percentage of 30% ACN and a concentration of 0.39 µM of the IS, LAMO.

[3] = Microsomal incubation with CBZ and PHE, supersomes (negative control); type: in vitro ADME; settings: data not shown
Description: Moreover, positive and negative controls were included: pooled human liver microsomes (Gibco™, HMMCPL–PL050B, Thermo Fisher Scientific) and Insect Cell Control Supersomes™ (lot number: PL050 C-B, 456201, Corning Incorporated, Corning, NY, USA), respectively. Based on Oziolor et al., microsomal reactions were initiated after adding the substrate solution at a concentration of 100 µM (see Supplementary Table S1) in a mixture of 100 mM K3PO4 buffer (Corning® Gentest™, NY, USA) of pH 7.4, 5% and 1% of NADPH regenerating system reagents A and B, respectively (Corning, Woburn, MA, USA) and 200 µg/mL of microsomal protein, for a total volume of 500 µL. The reactions were performed at 28.5 ± 0.3 °C until the time point of interest. […] The reactions were stopped at two time points (5 and 240 min) by sampling 40 µL, in duplicate, of the main microsomal reaction and mixed with 120 µL cold (4 °C) acetonitrile (ACN) (Merck, Darmstadt, Germany) already containing the internal standard (IS), LAMO. The samples were then centrifuged for 10 min at 10,000× g to precipitate the proteins, which were denatured in cold ACN.

[4] = design: method as in PMID 20832863; settings: after 70.5 h of exposure (time point 72 hpf); cited from earlier work
zebrafish embryos/larvae [5] = experiment: Quantification of metabolites E-CBZ and HPPH in pooled culture medium exposed to zebrafish embryos/larvae; type: in vivo, Danio rerio; settings: 250 µM CBZ
Description: The control and test mediums were also kept in the same incubator until the last time point of the experiment. The embryo media were renewed every 48 h, to avoid medium acidification and oxygen deprivation. At each medium change and at the last time point of the experiment (Figure 9), the media exposed to the embryos were pooled and kept at −80 °C for further use (n = 3).

Row | Structure (SMILES) | Decrease of parent compound after 240 min (pilot investigation) [1] | Uptake by embryos and larvae (quantified in homogenate extracts) (zebrafish embryos/larvae [2]; 24 and 120 hpf) | HPPH in embryo/larva extracts after exposure to PHE (zebrafish embryos/larvae [2]; 24 hpf and 120 hpf, any samples) | Internal concentration, times higher at 24 hpf than at 120 hpf (zebrafish embryos/larvae [2]; all concentrations) [times] | Decrease of parent compound after 240 min (pilot investigation) [3] | E-CBZ in embryo/larva extracts after exposure to CBZ (zebrafish embryos/larvae [2]; 31.25 µM CBZ, 24 and 120 hpf) | Internal concentration, fold lower at 120 hpf than at 24 hpf (zebrafish embryos/larvae [2]; 85 µM) [fold] | Average quantified concentration higher than the nominal concentration [4] [%] | Increase of E-CBZ in culture medium between 96 and 120 hpf (zebrafish embryos/larvae [5])
1 | O=C1NC(=O)C(c2ccccc2)(c2ccccc2)N1 [PHE, phenytoin] | very slight decrease | taken up | could not detect | ~5 | No decrease | – | – | – | –
2 | NC(=O)N1c2ccccc2C=Cc2ccccc21 [CBZ, carbamazepine] | no changes | taken up | – | – | – | could not be detected | 3.4 | 22.3 | six-fold
